What was measured:
Experiment in all cases: relative viability (nuclei count vs DMSO), 5 days (fraction); higher = more cells survive
Cediranib + OSI-027 = compound: COc1cc2c(Oc3ccc4[nH]c(C)cc4c3F)ncnc2cc1OCCCN1CCCC1 [Cediranib] + COc1cccc2cc(-c3nc([C@H]4CC[C@H](C(=O)O)CC4)n4ncnc(N)c34)[nH]c12 [OSI-027] (partner 0.5 µM)
How it was run: (§1)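 Lung cancer cell lines in 1536-well plates got either a single drug or a fixed anchor-drug dose together with five library-drug doses (not always all listed) in √10 steps, by pin tool, on the day after seeding. Nuclei were counted after 5 days, and relative viability is the treated-to-vehicle ratio of nuclei counts. Values are medians of duplicate plates.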

Cediranib + Pictilisib = compound: COc1cc2c(Oc3ccc4[nH]c(C)cc4c3F)ncnc2cc1OCCCN1CCCC1 [Cediranib] + CS(=O)(=O)N1CCN(Cc2cc3nc(-c4cccc5[nH]ncc45)nc(N4CCOCC4)c3s2)CC1 [Pictilisib] (partner 1 µM)
How it was run: as §1

Decitabine + Alpelisib = compound: Nc1ncn([C@H]2C[C@H](O)[C@@H](CO)O2)c(=O)n1 [Decitabine] + Cc1nc(NC(=O)N2CCC[C@H]2C(N)=O)sc1-c1ccnc(C(C)(C)C(F)(F)F)c1 [Alpelisib] (partner 2 µM)
How it was run: as §1

Decitabine + Olaparib = compound: Nc1ncn([C@H]2C[C@H](O)[C@@H](CO)O2)c(=O)n1 [Decitabine] + O=C(c1cc(Cc2n[nH]c(=O)c3ccccc23)ccc1F)N1CCN(C(=O)C2CC2)CC1 [Olaparib] (partner 8 µM)
How it was run: as §1

Cell Line	relative viability (Cediranib + OSI-027; first compound 0.04 µM)	relative viability (Cediranib + OSI-027; first compound 0.1265 µM)	relative viability (Cediranib + OSI-027; first compound 0.4 µM)	relative viability (Cediranib + OSI-027; first compound 1.265 µM)	relative viability (Cediranib + OSI-027; first compound 4 µM)	relative viability (Cediranib + Pictilisib; first compound 0.04 µM)	relative viability (Cediranib + Pictilisib; first compound 0.1265 µM)	relative viability (Cediranib + Pictilisib; first compound 0.4 µM)	relative viability (Cediranib + Pictilisib; first compound 1.265 µM)	relative viability (Cediranib + Pictilisib; first compound 4 µM)	relative viability (Decitabine + Alpelisib; first compound 0.04 µM)	relative viability (Decitabine + Alpelisib; first compound 0.1265 µM)	relative viability (Decitabine + Alpelisib; first compound 0.4 µM)	relative viability (Decitabine + Alpelisib; first compound 1.265 µM)	relative viability (Decitabine + Alpelisib; first compound 4 µM)	relative viability (Decitabine + Olaparib; first compound 0.04 µM)	relative viability (Decitabine + Olaparib; first compound 0.1265 µM)	relative viability (Decitabine + Olaparib; first compound 0.4 µM)	relative viability (Decitabine + Olaparib; first compound 1.265 µM)	relative viability (Decitabine + Olaparib; first compound 4 µM)
NCI-H2085	0.801	0.786	0.759	0.48	0.856	0.466	0.501	0.473	0.419	0.399	0.767	0.617	0.554	0.379	0.433	0.46	0.42	0.425	0.324	0.344
NCI-H2087	0.558	0.742	0.526	0.425	0.763	0.921	0.763	0.825	0.752	0.935	0.683	0.564	0.487	0.338	0.36	0.187	0.236	0.217	0.145	0.14
NCI-H2126	0.649	0.577	0.668	0.597	0.537	0.442	0.432	0.458	0.452	0.435	0.673	0.659	0.521	0.521	0.424	0.63	0.546	0.459	0.42	0.85
NCI-H2170	0.619	0.529	0.691	0.611	0.786	0.259	0.275	0.306	0.254	0.301	0.558	0.674	0.616	0.43	0.315	0.271	0.201	0.216	0.137	0.134
NCI-H2228	0.552	0.767	0.496	0.335	0.68	0.522	0.504	0.459	0.288	0.557	0.479	0.41	0.453	0.298	0.201	0.194	0.235	0.104	0.145	0.157
NCI-H2347	0.376	0.448	0.371	0.407	0.425	0.592	–	0.742	0.516	0.444	0.898	0.848	0.675	0.597	0.665	0.528	0.578	0.469	0.464	0.424
NCI-H2405	0.648	0.606	0.617	0.52	0.622	0.457	0.708	0.416	0.305	0.415	0.737	0.753	0.698	0.494	0.373	0.613	0.467	0.374	0.313	0.312
NCI-H3122	1.09	–	0.897	0.888	0.975	0.669	0.674	0.585	0.55	0.588	0.666	0.774	0.732	0.709	0.528	0.34	0.307	0.225	0.201	0.206
PC-3 [JPC-3]	0.777	0.824	0.73	0.688	0.627	0.659	0.905	0.708	0.671	0.768	–	0.773	0.581	0.493	0.479	–	0.762	0.368	0.465	0.455
PC-14	0.993	0.894	0.735	0.61	0.724	0.826	0.918	0.487	0.438	0.652	0.623	0.723	0.411	0.196	0.18	0.114	0.0887	0.0551	0.0482	0.0711
RERF-LC-KJ	0.572	0.511	0.547	0.492	0.523	0.526	0.573	0.516	0.461	0.431	0.87	0.914	0.702	0.643	0.569	0.615	0.608	–	0.448	0.495
SK-LU-1	0.343	0.39	0.338	0.257	0.33	0.632	0.796	0.54	0.497	0.498	0.62	0.637	0.485	0.5	0.284	0.274	0.244	0.214	0.247	0.253
SK-MES-1	0.666	0.633	0.608	0.542	0.788	0.349	0.441	0.284	0.391	0.383	0.733	0.738	0.482	0.32	0.261	0.288	0.362	0.299	0.179	0.244
SW 1573	0.682	0.644	0.604	0.427	0.662	0.544	0.486	0.428	0.474	0.486	0.7	0.912	0.61	0.274	0.298	0.257	0.239	0.17	0.127	0.111

From the supplement of paper PMC10307832
